# Measured values: patent US7163800B2, “Methods of screening compositions for G protein-coupled receptor desensitization inhibitory activity” (Molecular Devices Corporation, priority 2000, dated 2007)
# Where two headings read alike, the source gives them in different places.
# Experiments:
# [1] = target: HA-tagged human β2-adrenergic receptor (β2AR) (Homo sapiens, UniProt P07550); experiment: arrestin-GFP localization (Fgrains) assay in U20S-β2AR/ArrGFP cells, isoproterenol stimulated
# Experimental: Each of the fifteen compounds was separately screened for GPCR desensitization inhibitory activity against HA-tagged human β2-adrenergic receptor (β2AR) and against human vasopressin V2 receptor (V2R). In addition, the effects of temperature and carbon dioxide (CO2) were evaluated with respect to each compound.
# β2AR and V2R = settings: inhibitory activity shown for both β2AR and V2R
# From the text: Each of the fifteen compounds was separately screened for GPCR desensitization inhibitory activity against HA-tagged human β2-adrenergic receptor (β2AR) and against human vasopressin V2 receptor (V2R).
# As indicated by the Fgrains values for the cells in the Basal and Stimulated control wells, the Fgrains value determined by the IN Cell Analyzer 3000 in this example was functionally a measure of the average extent of desensitization in the cells in each well.
# [2] = target: human vasopressin V2 receptor (V2R) (Homo sapiens, UniProt P30518); experiment: arrestin-GFP localization (Fgrains) assay in U20S-V2R/ArrGFP cells, arginine vasopressin stimulated; format: cell-based; settings: 100 nM arginine vasopressin
# Sequence of human vasopressin V2 receptor (V2R) (P30518 whole entry): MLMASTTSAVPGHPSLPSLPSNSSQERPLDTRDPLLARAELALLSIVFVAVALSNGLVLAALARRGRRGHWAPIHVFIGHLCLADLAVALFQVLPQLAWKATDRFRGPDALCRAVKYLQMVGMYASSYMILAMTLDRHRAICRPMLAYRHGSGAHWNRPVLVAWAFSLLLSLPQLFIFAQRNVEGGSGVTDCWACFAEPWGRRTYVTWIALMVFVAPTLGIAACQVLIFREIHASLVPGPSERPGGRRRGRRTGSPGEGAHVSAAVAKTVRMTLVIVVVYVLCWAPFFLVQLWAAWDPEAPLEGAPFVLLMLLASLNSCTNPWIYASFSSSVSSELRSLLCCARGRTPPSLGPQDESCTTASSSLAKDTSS
# Experimental: The assay was carried out using two different “double stable” human osteosarcoma cell (U20S) lines. […] The other cell line (U20S-V2R/ArrGFP) stably expressed V2R and the same arrestin-GFP conjugate.
# The two cell lines (U20S-β2AR/ArrGFP and U20S-V2R/ArrGFP) were separately plated at 7000 cells/well on 384 well glass bottom plates. Two plates of U20S-β2AR/ArrGFP cells were prepared and two plates of U20S-V2R/ArrGFP cells were prepared.
# Growth media was replaced with serum free media (i.e., Eagle's minimum essential medium (EMEM) buffered with 10 mM HEPES (N-2-Hydroxyethylpiperazine-N′-2-ethanesulfonic acid)) 24 hours after plating of the cells.
# Each test compound was solvated using 100% dimethyl sulfoxide (DMSO). Multiple solutions of each compound were prepared at varying concentrations for testing in separate wells of each plate. If needed, the solutions were sonicated and heated to increase solubility. After preparation of the compound solutions, they were shielded from light.
# Each of the solutions of varying concentrations of the fifteen compounds was added to a well on each of the four plates. The β2AR RT and V2R RT plates were incubated for 30 minutes at room temperature and atmospheric CO2.
# Agonist was then added to each well. […] The β2AR RT and V2R RT plates were incubated for 30 minutes at room temperature and atmospheric CO2.
# Each assay was then terminated using 1% paraformaldehyde containing 1 μM DRAQ5 DNA probe to fix the cells. The cells were analyzed using a pre-production model (alpha unit) of the IN Cell Analyzer 3000 (Amersham Biosciences), which is a line scanning, confocal imaging system. The IN Cell Analyzer 3000 was used to quantitate the localization of the arrestin-GFP conjugate for the cells in each well using the Amersham Biosciences granularity analysis GRNO algorithm. This algorithm finds the nucleus of cells and then dilates out a specified distance in which fluorescent spots or “grains” of arrestin-GFP localization are identified based on size and fluorescent intensity. The average of the fluorescent intensity of the identified grains per cell in an acquired image (i.e., Fgrains) was determined for each well on the plates.
# The graphs for each compound as well as for the propanolol control are illustrated in FIGS. 7–22.
# The curve-fitting program allowed the minimum and maximum values as well as the slope and EC50 values to vary rather than fixing the values to specified or collected values.
# [3] = B2AR CO2 plate: 37° C., 5% CO2/95% O2, 100 nM isoproterenol
# [4] = B2AR RT plate: room temperature, atmospheric CO2, 100 nM isoproterenol
# [5] = V2R CO2 plate: 37° C., 5% CO2/95% O2
# [6] = V2R RT plate: room temperature, atmospheric CO2
# Sequence of HA-tagged human β2-adrenergic receptor (β2AR) (P07550 whole entry): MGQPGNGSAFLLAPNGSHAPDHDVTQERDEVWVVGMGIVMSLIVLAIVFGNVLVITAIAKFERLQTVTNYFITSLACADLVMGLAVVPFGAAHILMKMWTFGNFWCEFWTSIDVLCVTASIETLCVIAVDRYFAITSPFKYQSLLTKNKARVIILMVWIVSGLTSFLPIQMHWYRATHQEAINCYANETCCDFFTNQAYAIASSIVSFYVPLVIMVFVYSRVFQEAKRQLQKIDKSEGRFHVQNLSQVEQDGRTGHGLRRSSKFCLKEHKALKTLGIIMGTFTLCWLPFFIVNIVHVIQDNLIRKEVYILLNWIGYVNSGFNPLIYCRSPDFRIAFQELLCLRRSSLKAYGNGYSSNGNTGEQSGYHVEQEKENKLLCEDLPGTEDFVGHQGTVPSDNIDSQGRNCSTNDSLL
compound,measurement,setting,value
"CCC(=O)n1nc2c(c1C(C)(C)C)C(=O)c1ccccc1-2 [3-tert-Butyl-2-propionyl-2H-indeno[1,2-c]pyrazol-4-one]",EC50,[1],46.9 µM
same,Max Rsp (change between fitted maximum and fitted minimum Fgrains),[1]; [3],129
same,Min (fitted minimum Fgrains),[1]; [3],307
same,slope of concentration-response curve,[1]; [3],3.2
"Cl.NCCCn1cc(C2=C(c3c[nH]c4ccccc34)C(=O)NC2=O)c2ccccc21 [Bisindolylmaleimide III, Hydrochloride]",indication of non-receptor-specific GPCR desensitization inhibitory activity,β2AR and V2R,non-receptor-specific GPCR desensitization inhibitory activity
same,Max Rsp (change between fitted maximum and fitted minimum Fgrains),[1]; [3],998
same,Min (fitted minimum Fgrains),[1]; [3],−568
same,pEC50,[1]; [3],3.6
same,slope of concentration-response curve,[1]; [3],1.1
same,EC50,"[1]; B2AR CO2 plate: 37° C., 5% CO2/95% O2, 100 nM isoproterenol, Hydrochloride",233 µM
same,Max Rsp (change between fitted maximum and fitted minimum Fgrains),[1]; [4],171
same,Min (fitted minimum Fgrains),[1]; [4],237
same,pEC50,[1]; [4],4.5
same,slope of concentration-response curve,[1]; [4],3.5
same,EC50,"[1]; B2AR RT plate: room temperature, atmospheric CO2, 100 nM isoproterenol, Hydrochloride",34.9 µM
same,Max Rsp (change between fitted maximum and fitted minimum Fgrains),[2]; [5],455
same,Min (fitted minimum Fgrains),[2]; [5],129
same,pEC50,[2]; [5],4.6
same,slope of concentration-response curve,[2]; [5],1.4
same,EC50,"[2]; V2R CO2 plate: 37° C., 5% CO2/95% O2, Hydrochloride",27.2 µM
same,EC50,[2]; [6],51.2 µM
same,Max Rsp (change between fitted maximum and fitted minimum Fgrains),[2]; [6],690
same,Min (fitted minimum Fgrains),[2]; [6],−118
same,pEC50,[2]; [6],4.3
same,slope of concentration-response curve,[2]; [6],1.2
NCCCn1cc(C2=C(c3c[nH]c4ccccc34)C(=O)NC2=O)c2ccccc21 [Bisindolylmaleimide III],indication of non-receptor-specific GPCR desensitization inhibitory activity,β2AR and V2R,non-receptor-specific GPCR desensitization inhibitory activity
same,EC50,[1]; [3],11.1 µM
same,Max Rsp (change between fitted maximum and fitted minimum Fgrains),[1]; [3],194
same,Min (fitted minimum Fgrains),[1]; [3],243
same,pEC50,[1]; [3],5.0
same,slope of concentration-response curve,[1]; [3],1.8
same,EC50,[1]; [4],22.4 µM
same,Max Rsp (change between fitted maximum and fitted minimum Fgrains),[1]; [4],232
same,Min (fitted minimum Fgrains),[1]; [4],212
same,pEC50,[1]; [4],4.7
same,slope of concentration-response curve,[1]; [4],1.2
same,EC50,[2]; [5],6 µM
same,Max Rsp (change between fitted maximum and fitted minimum Fgrains),[2]; [5],298
same,Min (fitted minimum Fgrains),[2]; [5],291
same,pEC50,[2]; [5],5.2
same,slope of concentration-response curve,[2]; [5],1.9
same,EC50,[2]; [6],19.3 µM
same,Max Rsp (change between fitted maximum and fitted minimum Fgrains),[2]; [6],361
same,Min (fitted minimum Fgrains),[2]; [6],225
same,pEC50,[2]; [6],4.7
same,slope of concentration-response curve,[2]; [6],0.9
CN1CCCC1CCn1cc(C2=C(c3c[nH]c4ccccc34)C(=O)NC2=O)c2ccccc21 (stereo not drawn) [Bisindolylmaleimide II],indication of non-receptor-specific GPCR desensitization inhibitory activity,β2AR and V2R,non-receptor-specific GPCR desensitization inhibitory activity
same,EC50,[1]; [3],62.1 µM
same,Max Rsp (change between fitted maximum and fitted minimum Fgrains),[1]; [3],502
same,Min (fitted minimum Fgrains),[1]; [3],−70
same,pEC50,[1]; [3],4.2
same,slope of concentration-response curve,[1]; [3],1.7
same,EC50,[1]; [4],87.3 µM
same,Max Rsp (change between fitted maximum and fitted minimum Fgrains),[1]; [4],924
same,Min (fitted minimum Fgrains),[1]; [4],−508
same,pEC50,[1]; [4],4.1
same,slope of concentration-response curve,[1]; [4],1.7
same,EC50,[2]; [5],29.2 µM
same,Max Rsp (change between fitted maximum and fitted minimum Fgrains),[2]; [5],420
same,Min (fitted minimum Fgrains),[2]; [5],159
same,pEC50,[2]; [5],4.5
same,slope of concentration-response curve,[2]; [5],1.2
same,EC50,[2]; [6],35 µM
same,Max Rsp (change between fitted maximum and fitted minimum Fgrains),[2]; [6],576
same,Min (fitted minimum Fgrains),[2]; [6],−7
same,pEC50,[2]; [6],4.5
same,slope of concentration-response curve,[2]; [6],1.1
O=C1NC(=O)C(c2c[nH]c3ccccc23)=C1c1c[nH]c2ccccc12 [Bisindolylmaleimide IV],EC50,[2]; [5],69.2 µM
same,Max Rsp (change between fitted maximum and fitted minimum Fgrains),[2]; [5],277
same,Min (fitted minimum Fgrains),[2]; [5],292
same,pEC50,[2]; [5],4.2
same,slope of concentration-response curve,[2]; [5],6.5
O=C1NC(=O)C(c2cn(CCCN3CCNCC3)c3ccccc23)=C1c1c[nH]c2ccccc12 [Bisindolylmaleimide VII],indication of non-receptor-specific GPCR desensitization inhibitory activity,β2AR and V2R,non-receptor-specific GPCR desensitization inhibitory activity
same,EC50,[1]; [3],21.2 µM
same,Max Rsp (change between fitted maximum and fitted minimum Fgrains),[1]; [3],278
same,Min (fitted minimum Fgrains),[1]; [3],167
same,pEC50,[1]; [3],4.7
same,slope of concentration-response curve,[1]; [3],2.3
same,EC50,[1]; [4],24.9 µM
same,Max Rsp (change between fitted maximum and fitted minimum Fgrains),[1]; [4],281
same,Min (fitted minimum Fgrains),[1]; [4],148
same,pEC50,[1]; [4],4.6
same,slope of concentration-response curve,[1]; [4],2.2
same,EC50,[2]; [5],9.3 µM
same,Max Rsp (change between fitted maximum and fitted minimum Fgrains),[2]; [5],336
same,Min (fitted minimum Fgrains),[2]; [5],250
same,pEC50,[2]; [5],5.0
same,slope of concentration-response curve,[2]; [5],2.4
same,EC50,[2]; [6],36.6 µM
same,Max Rsp (change between fitted maximum and fitted minimum Fgrains),[2]; [6],717
same,Min (fitted minimum Fgrains),[2]; [6],−130
same,pEC50,[2]; [6],4.4
same,slope of concentration-response curve,[2]; [6],1.1
Cn1cc(C2=C(c3cn(CCCN)c4ccccc34)C(=O)NC2=O)c2ccccc21 [RO-31-7549],indication of non-receptor-specific GPCR desensitization inhibitory activity,β2AR and V2R,non-receptor-specific GPCR desensitization inhibitory activity
same,EC50,[1]; [3],9.4 µM
same,Max Rsp (change between fitted maximum and fitted minimum Fgrains),[1]; [3],243
same,Min (fitted minimum Fgrains),[1]; [3],193
same,pEC50,[1]; [3],5.0
same,slope of concentration-response curve,[1]; [3],1.2
same,EC50,[1]; [4],31.1 µM
same,Max Rsp (change between fitted maximum and fitted minimum Fgrains),[1]; [4],423
same,Min (fitted minimum Fgrains),[1]; [4],4
same,pEC50,[1]; [4],4.5
same,slope of concentration-response curve,[1]; [4],0.8
same,EC50,[2]; [5],2.7 µM
same,Max Rsp (change between fitted maximum and fitted minimum Fgrains),[2]; [5],357
same,Min (fitted minimum Fgrains),[2]; [5],240
same,pEC50,[2]; [5],5.6
same,slope of concentration-response curve,[2]; [5],1.0
same,EC50,[2]; [6],3.3 µM
same,Max Rsp (change between fitted maximum and fitted minimum Fgrains),[2]; [6],320
same,Min (fitted minimum Fgrains),[2]; [6],250
same,pEC50,[2]; [6],5.5
same,slope of concentration-response curve,[2]; [6],1.5
Cn1cc(C2=C(c3c4n(c5ccccc35)CCC(CN)C4)C(=O)NC2=O)c2ccccc21 (stereo not drawn) [RO-31-8425],indication of non-receptor-specific GPCR desensitization inhibitory activity,β2AR and V2R,non-receptor-specific GPCR desensitization inhibitory activity
same,EC50,[1]; [3],8.8 µM
same,Max Rsp (change between fitted maximum and fitted minimum Fgrains),[1]; [3],203
same,Min (fitted minimum Fgrains),[1]; [3],233
same,pEC50,[1]; [3],5.1
same,slope of concentration-response curve,[1]; [3],2.1
same,EC50,[1]; [4],23.2 µM
same,Max Rsp (change between fitted maximum and fitted minimum Fgrains),[1]; [4],359
same,Min (fitted minimum Fgrains),[1]; [4],60
same,pEC50,[1]; [4],4.6
same,slope of concentration-response curve,[1]; [4],1.3
same,EC50,[2]; [5],13.9 µM
same,Max Rsp (change between fitted maximum and fitted minimum Fgrains),[2]; [5],532
same,Min (fitted minimum Fgrains),[2]; [5],60
same,pEC50,[2]; [5],4.9
same,slope of concentration-response curve,[2]; [5],1.0
same,EC50,[2]; [6],6.9 µM
same,Max Rsp (change between fitted maximum and fitted minimum Fgrains),[2]; [6],342
same,Min (fitted minimum Fgrains),[2]; [6],241
same,pEC50,[2]; [6],5.2
same,slope of concentration-response curve,[2]; [6],1.5
"C[n+]1cc2c3c(ccc2c2ccc4cc5c(cc4c21)OCO5)OCO3 [Sanguinarine Chloride (LOPAC), Sanguinarine Chloride]",indication of non-receptor-specific GPCR desensitization inhibitory activity,β2AR and V2R,non-receptor-specific GPCR desensitization inhibitory activity
same,Max Rsp (change between fitted maximum and fitted minimum Fgrains),[1]; [3],350
same,Min (fitted minimum Fgrains),[1]; [3],85
same,slope of concentration-response curve,[1]; [3],1.6
same,Max Rsp (change between fitted maximum and fitted minimum Fgrains),[1]; [4],330
same,Min (fitted minimum Fgrains),[1]; [4],76
same,slope of concentration-response curve,[1]; [4],1.8
same,EC50,"[1]; EC50, B2AR CO2 plate: 37° C., 5% CO2/95% O2, 100 nM isoproterenol",3.3 µM
same,EC50,"[1]; EC50, B2AR RT plate: room temperature, atmospheric CO2, 100 nM isoproterenol",2.8 µM
same,Max Rsp (change between fitted maximum and fitted minimum Fgrains),[2]; [5],519
same,Min (fitted minimum Fgrains),[2]; [5],63
same,slope of concentration-response curve,[2]; [5],2.6
same,Max Rsp (change between fitted maximum and fitted minimum Fgrains),[2]; [6],508
same,Min (fitted minimum Fgrains),[2]; [6],45
same,slope of concentration-response curve,[2]; [6],2.3
